Laboratory results from patent US20240336658A1, “CYCLIC PEPTIDE AND PREPARATION METHOD AND USE THEREOF” (HANGZHOU HUIBO SCIENCE AND TECHNOLOGY CO., LTD, priority 2021, published 2024).

Assays:
[1] = Solubility of prepared cyclic peptide; format: physicochemical
fibroblasts (NIH/3T3) = assay: Scratching experiment, Hst1 cyclic peptides (Examples 11 and 12); format: cell-based; conditions: dosage needed to achieve the same pharmaceutical effect in the scratch experiment
Protocol: At the same time, fibroblasts (NIH/3T3; GNM 6; Chinese Academy of Sciences, China) were plated into a 6-well plate at a number of 2×10^6/well and cultured to a density of 70-80%. The cells were starved for 8-12 hours before the experiment. Mitomycin C (Sigma Aldrich, USA) was added into the culture medium to make its concentration in the culture medium be 15 μg/ml, and the culture medium was changed after 3 hours of treatment. Scratching was conducted with a 200 μl pipette tip perpendicular to the bottom of the well-plate with the same force, and the well-plate was rinsed with PBS twice after scratching. Each well was added with an appropriate amount of a DEME medium (10% FBS, 1% double antibody), and except for the blank control group, each well was added with 10 μM of the linear Hst1, 0.01 μM of the propynylglycine-Hst1 cyclic peptide, 0.1 μM of the propynylglycine-Hst1 cyclic peptide and 1 μM of the propynylglycine-Hst1 cyclic peptide as experimental groups. At 0 hour, the cells in each group were photographed by using a microscope (Olympus, Japan). […] The scratched area of each group was calculated by using imageJ (Rawak Software, Inc. Germany) software, and the scratch area at 0 hour was an initial scratch area. The scratch healing rate was calculated as follows: […]

[2] = tested on: full-thickness skin defect wound surfaces; assay: Effects of cyclic peptide Hst1 on wound repair in mice (Example 10): healing rate, HE/Masson histology, CD31/VEGF immunohistochemistry; format: in vivo, C57 BL/6 mice; conditions: day 10, Masson staining; 0.1 μM Click-Histatin1, 0.1 μM Sortase A-cyclic histatin1, 10 μM Histatin1
Protocol: This example adopted the propargylglycine-Hst1 cyclic peptide (Click-Histatin1) provided in Example 1, a cyclized Hst1 (Sortase A-cyclic histatin1) prepared by the Sortase A enzymatic method provided in Example 4, and a linear peptide Hst1 (Histatin1) to conduct animal experiments to observe the effect of the propargylglycine-Hst1 on the healing rates of the wound surfaces of mice. The concentration of the linear peptide Hst1 was 10 μM, the concentration of the propargylglycine-Hst1 cyclic peptide was 0.1 μM, and the concentration of the cyclized Hst1 prepared by the Sortase A enzymatic method was each 0.1 μM. 12 healthy male special pathogen-free grade C57 BL/6 mice (purchased from Guangdong Experimental Animal Center) of 6-8 weeks old and weighing 22-28 g. They were intraperitoneally injected with 5 ml/kg of 1% pentobarbital sodium for anesthesia. After the mice had no corneal reflex, the hair on their backs was carefully removed and disinfected with alcohol. […] full-thickness skin defect wound surfaces were prepared on the back of each mouse by using a circular skin punch. The 12 mice were divided into a Control (blank) group with 3 mice, a 10 μM linear peptide Hst1 (Histatin1) group with 3 mice, a 0.1 μM propynylglycine-Hst1 cyclic peptide (Click-Histatin1) group with 3 mice, and a 0.1 μM cyclized Hst1 prepared by a Sortase A enzymatic method (Sortase A-cyclic histatin1) group with 3 mice, according to a random number table method. Each wound surface was added with 0.5 ml of four drugs respectively, and administration was conducted every day until the wound surfaces of the experimental groups healed. Photographs were taken on days 0, 3, 5, 7, and 10 after surgery, and wound tissues were sampled on day 10 for subsequent pathological staining. On days 0, 3, 5, 7, and 10 after injury, the general condition of wound healing of the mice was observed and photographed with a digital camera (see FIG. 4), and the wound healing rate was calculated (see FIG. 5). Wound healing rate=(wound area immediately after injury−unhealed wound area at each time point)[…]wound area immediately after injury×100%. The wound specimens were fixed in 4% paraformaldehyde for 48 hours, rinsed with tap water for 10 minutes, dehydrated with graded ethanol, permeabilized with xylene, and embedded in paraffin to prepare 4 μm thick sections. Some sections were taken for HE staining and Masson staining, and observed for the thickness of the granulation tissue, the length of the dermal gap, and the newly grown collagen of the wound surface under an inverted fluorescence microscope at 40×, 100×, 200×, and 400× respectively (see FIGS. 6 and 7). 5 sections were taken from each mouse, and 5 fields of view were selected for each section. Data analysis was performed using the software Image-pro Plus. […] It was added with a rabbit anti-mouse CD31 primary antibody (with a dilution ratio of 1:300) and a mouse anti-VEGF (with a dilution ratio of 1:100), incubated overnight at 4° C., and washed with PBS. […] It was subjected to DAB development, hematoxylin counterstaining. gradient ethanol dehydration, xylene permeabilization, and resin blocking. 5 sections were taken from each mouse, and 5 fields of view were selected for each section. The sections were observed under a 400× inverted fluorescence microscope, and analyzed for the number of CD31-positive blood vessels (see FIG. 8) and VEGF expression amounts (see FIG. 9, shown in brown) by using Image-pro Plus software. The measurement data were expressed by M±SD, and the data were analyzed by one-way analysis of variance (ANOVA) and an independent samples T-test with SPSS 20.0 software to detect whether the differences among the groups were statistically significant, and a Bonferroni test was used for pairwise comparison. *p<0.05. **p<0.01. ***p<0.001 meant the difference was statistically significant, and p>0.05 was not statistically significant.

Sortase A-cyclic histatin1: cyclized Hst1 prepared by the literature Sortase A enzymatic method (Bolscher, FASEB Journal) (DSHEKRHHGYRRKFHEKHHSHREFPFYGDYGSNYLYDN; Histatin-1 cyclized via sortase A; UniProt P15515 20-57, looked up) [reference compound]
solubility [1]: poor solubility | Dosage of agents required for scratch test (fibroblasts (NIH/3T3)): 0.12 µM | expression amount of collagen at the wound surfaces [2]: significantly higher than that of the Control group
